Assay results published in article PMC8214221, “Sequence determinants in the cathelicidin LL-37 that promote inflammation via presentation of RNA to scavenger receptors” (The Journal of Biological Chemistry, 2021).
Residues, ends and D or L forms follow the SMILES beside them.

How the values were obtained:
[1] = system: U1 dsRNA binding on the surface of NHEKs; assay: Surface binding of Alexa 488-labeled U1 dsRNA to NHEKs; format: cell-based, human; conditions: Alexa 488 U1 0.05-10 μg/ml + peptide 2.5 μM, 10 min on ice; fluorometer RFU, n = 3
Protocol: We also assayed the dynamics of binding of U1 dsRNA on the surface of NHEKs in the presence of LL-34 mutant peptides. NHEKs were exposed to fluorescent Alexa 488–labeled U1 at increasing concentrations (0.05–10 μg/ml) and LL-34 parent peptide, LL-34 I24A, LL-34 L31A, LL-34 K25A, and LL-34 proline at isoleucine position 20 (I20P) for 10 min on ice to allow for surface binding of U1 to cells in the presence of peptides (Fig. 5A).
Figure 5 Biophysical properties of binding of U1 dsRNA to LL-34 peptides and SRB1 protein.A, NHEKs were treated with Alexa 488–labeled U1 dsRNA or a combination of Alexa 488–labeled U1 dsRNA (0.05–10 μg/ml) and LL-34 peptides LL-34 parent, LL-34 I24A, LL-34 K25A, LL-34 L31A, and LL-34 I20P at 2.5 μM as shown. The cells were prechilled on ice for 15 min before the addition of U1 dsRNA and/or LL-34 peptides, and the surface binding of U1 dsRNA was allowed for 10 min. The amount of U1 dsRNA binding to NHEKs was assessed with a fluorometer, and data are represented as relative fluorescence units (RFUs) (n = 3). B, NHEKs were similarly treated with Alexa-labeled U1 dsRNA (1.5 μg/ml) and/or unlabeled U1 dsRNA (15 μg/ml) with the addition of LL-34 parent peptide at 2.5 μM. The experiment was performed on ice for 10 min, and the relative binding of Alexa 488 U1 dsRNA was assessed on a fluorometer and is shown as RFU (n = 3) (∗p < 0.05) one-way ANOVA. C, SAXS spectra of LL-34 peptides LL-34 parent, LL-34 F5A, LL-34 I24A, and LL-34 L31A incubated with U1 dsRNA. The peptide-U1 dsRNA (P/R) ratio is varied at 1 and 2 for all conditions. The U1 dsRNA interhelical spacing (Q) was calculated by the peak position. The domain size (L) was calculated by the full width at half maximum of the first peak. LL-34, 34-amino acid peptide; NHEKs, normal human epidermal keratinocytes; SAXS, small-angle X-ray scattering.

[2] = system: NHEKs, IL-6 secretion in response to U1 dsRNA; assay: IL-6 secretion ELISA in NHEKs; format: cell-based, human; conditions: U1 dsRNA 2.5 μg/ml + peptide 2 μM, 18 h, n = 3
Method in brief: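 NHEKs (also HDMECs) exposed to LL-34 parent or alanine-scan peptides at 2 μM, alone or with U1 dsRNA (2.5 μg/ml), for 18 h. Secreted IL-6 in supernatant quantified by sandwich ELISA (n = 3).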

Structure (SMILES) | Binding of Alexa 488-labeled U1 dsRNA on the NHEK cell surface [1] | IL-6 protein secretion, cotreatment with U1 dsRNA, vs U1 dsRNA + LL-34 parent [2]
CC[C@H](C)[C@H](NC(=O)[C@H](CCCCN)NC(=O)[C@H](CCC(=O)O)NC(=O)[C@H](CCCCN)NC(=O)[C@H](CO)NC(=O)[C@H](CCCCN)NC(=O)[C@H](CCCNC(=N)N)NC(=O)[C@H](Cc1ccccc1)NC(=O)[C@H](Cc1ccccc1)NC(=O)[C@H](CC(=O)O)NC(=O)CNC(=O)[C@H](CC(C)C)NC(=O)[C@@H](N)CC(C)C)C(=O)NCC(=O)N[C@@H](CCCCN)C(=O)N[C@@H](CCC(=O)O)C(=O)N[C@@H](Cc1ccccc1)C(=O)N[C@@H](CCCCN)C(=O)N[C@@H](CCCNC(=N)N)C(=O)N[C@H](C(=O)N[C@H](C(=O)N[C@@H](CCC(N)=O)C(=O)N[C@@H](CCCNC(=N)N)C(=O)N[C@@H](C)C(=O)N[C@@H](CCCCN)C(=O)N[C@@H](CC(=O)O)C(=O)N[C@@H](Cc1ccccc1)C(=O)N[C@@H](CC(C)C)C(=O)N[C@@H](CCCNC(=N)N)C(=O)N[C@@H](CC(N)=O)C(=O)N[C@@H](CC(C)C)C(=O)N[C@H](C(=O)N1CCC[C@H]1C(=O)N[C@@H](CCCNC(=N)N)C(=O)O)C(C)C)C(C)C)[C@@H](C)CC [LL-34—I24A] (H-LLGDFFRKSKEKIGKEFKRIVQRAKDFLRNLVPR-OH) | nonsaturable binding | reduced secretion of IL-6 protein
CC[C@H](C)[C@H](NC(=O)[C@H](CCCCN)NC(=O)[C@H](CCC(=O)O)NC(=O)[C@H](CCCCN)NC(=O)[C@H](CO)NC(=O)[C@H](CCCCN)NC(=O)[C@H](CCCNC(=N)N)NC(=O)[C@H](Cc1ccccc1)NC(=O)[C@H](Cc1ccccc1)NC(=O)[C@H](CC(=O)O)NC(=O)CNC(=O)[C@H](CC(C)C)NC(=O)[C@@H](N)CC(C)C)C(=O)NCC(=O)N[C@@H](CCCCN)C(=O)N[C@@H](CCC(=O)O)C(=O)N[C@@H](Cc1ccccc1)C(=O)N[C@@H](CCCCN)C(=O)N[C@@H](CCCNC(=N)N)C(=O)N[C@H](C(=O)N[C@H](C(=O)N[C@@H](CCC(N)=O)C(=O)N[C@@H](CCCNC(=N)N)C(=O)N[C@H](C(=O)N[C@@H](CCCCN)C(=O)N[C@@H](CC(=O)O)C(=O)N[C@@H](Cc1ccccc1)C(=O)N[C@@H](CC(C)C)C(=O)N[C@@H](CCCNC(=N)N)C(=O)N[C@@H](CC(N)=O)C(=O)N[C@@H](C)C(=O)N[C@H](C(=O)N1CCC[C@H]1C(=O)N[C@@H](CCCNC(=N)N)C(=O)O)C(C)C)[C@@H](C)CC)C(C)C)[C@@H](C)CC [LL-34—L31A] (H-LLGDFFRKSKEKIGKEFKRIVQRIKDFLRNAVPR-OH) | nonsaturable binding | reduced secretion of IL-6 protein
